Source: patent publication US4168206A, “Impregnated disk method for testing antifungal susceptibility” (Philadelphia College of Osteopathic Medicine, priority 1977, dated 1979)

How the values were obtained:
C. tropicalis [1] = test: MIC by broth dilution method, Candida tropicalis; type: cell-based; details: C. tropicalis; broth dilution method
Source text: (§1) The preparation of the nutrient media, the antifungal agents and the fungi to be tested in the present invention are similar to those reported in S. Shadomy and A. Espinel-Ingroff, "Susceptibility Testing Of Antifungal Agents", Ch. 63, pp. 569-574 in E. H. Lennett, E. H. Spaulding, and J. P. Truant, Eds., Manual Of Clinical Microbiology, 2nd Ed., American Society for Microbiology, Washington, D.C. (1974). This publication describes the susceptibility testing of antifungal agents, namely, amphotericin B, nystatin and 5-fluoro-cytosine (5-FC), by the "broth dilution method" and the "semisolid agar dilution method". At pages 570-571, it is stated:
(§2) In 10 duplicate runs with each strain tested, the variation in minimum inhibitory concentration averaged ±0.05 μg/ml.
(§3) *Broth dilution method conducted in accordance with S. Shadomy and E.
(§4) Espinel-Ingroff, "Susceptibility Testing of Antifungal Agents", Ch. 63,
(§5) pp. 569-574 in E. H. Spaulding and J. P. Truant, Eds., Manual Of Clinical
(§6) Microbiology, 2nd Ed., American Society for Microbiology, Washington, […]

Torulopsis glabrata [2] = test: MIC by impregnated disk method, Torulopsis glabrata; type: cell-based; details: Torulopsis glabrata; disk method
Method: (§7) Stock solutions of the antifungal agents to be tested are preferably prepared by diluting the antifungal agents in the proper nutrient medium. It is presently preferred to prepare dilutions in 10 ml of the proper medium to give the following final concentrations when applied to the disks (all quantities in micrograms per milliliter): 0.05, 0.08, 0.09, 0.1; 0.1 increment increases to 0.9, 1.0; 0.5 increment increases to 10.0; and 12.0, 14.0, 20.0, 25.0 and 50.0. Disks have been prepared by placing 0.05 ml of the above dilutions of antifungal agent containing medium on 6.5 mm diameter disks in 0.01 or 0.02 ml increments. The impregnated disks are then allowed to dry at a temperature preferably below about 10° C. […] The disks may also be dried by a lyophilization or freeze drying process.
(§8) To perform the tests in accordance with the present inventions, disks impregnated with various concentrations of antifungal agent and nutrient medium and a control disk impregnated only with the corresponding nutrient medium are placed on the fungus to be tested which has been applied to the non-nutrient medium. The disks are the inoculated non-nutrient medium are then incubated at a suitable temperature for a sufficient time to promote growth of the fungus. Any temperature is suitable if it will promote growth of the fungus without adversely affecting the fungus or the activity of the antifungal agent or agents tested. The time of incubation can be determined by observing the extent of growth around the control disk. […] The zones of growth or inhibition around the disks were read at 6, 12, 24, 36 and 48 hours after the disks were placed on the tested fungus.
(§9) The minimum inhibitory concentration is defined as the lowest concentration of antifungal agent which inhibits visible growth. […]
(§10) Several test disks and a control disk were placed in each petri dish containing the inoculated agar. The disks and petri dishes were then incubated at 29° C. and the minimum inhibitory concentration of the various concentrations of the antifungal agents were read at 6, 12, 24, 36 and 48 hours. […]

Cryptococcus neoformans [3] = test: MIC by impregnated disk method, Cryptococcus neoformans; type: cell-based
Method: as §7, §8
(§11) The minimum inhibitory concentration is defined as the lowest concentration of antifungal agent which inhibits visible growth. The disks containing concentrations of antifungal agents below the minimum inhibitory concentration show circumscribed growth of the fungus around the disk. Disks containing concentrations of antifungal agent at or above the minimum inhibitory concentration show no circumscribed growth.
(§12) Clinical isolates of various fungi listed in Table 1 were obtained from different patients diagnosed as having fungal infections. The fungal inocula were prepared by using a 24-48 hour cultures grown in yeast nitrogen base containing 1% glucose and 0.15% asparagine. After centrifuging, the supernatant was removed, the sedimented cells were washed twice with sterile distilled water and a cell suspension was adjusted to 80% transmission at 520 nm using a Beckman DB-GT grating spectrophotometer.
(§13) Sterile liquified 2% purified agar was placed in petri dishes and allowed to harden. The surface of the agar was inoculated with a sterile cotton swab saturated with a suspension of an organism. The uniformly swabbed plates were then allowed to dry.
(§14) Disks were prepared using the dilutions described above for amphotericin B, nystatin and 5-fluorocytosine. 0.05 ml of the dilutions of each antifungal agent diluted with the appropriate nutrient medium were pipetted on 6.5 mm diameter disks. The disks were dried at 4° C. after each application. Control disks were also prepared.
(§15) Several test disks and a control disk were placed in each petri dish containing the inoculated agar. The disks and petri dishes were then incubated at 29° C. and the minimum inhibitory concentration of the various concentrations of the antifungal agents were read at 6, 12, 24, 36 and 48 hours.
as §2

C. tropicalis [4] = test: MIC by impregnated disk method, Candida tropicalis; type: cell-based; details: C. tropicalis; disk method
Method: as §7, §8, §9, §10

Geotrichum candidum [5] = test: MIC by broth dilution method, Geotrichum candidum; type: cell-based; details: broth dilution method
Source text: as §1, §2, §3, §4, §5, §6

Geotrichum candidum [6] = test: MIC by impregnated disk method, Geotrichum candidum; type: cell-based; details: disk method
Method: as §7, §8, §9, §10

Saccharomyces cerevisiae [7] = test: MIC by broth dilution method, Saccharomyces cerevisiae; type: cell-based
Source text: as §1, §2, §3, §4, §5, §6

Trichosporon sp. [8] = test: MIC by impregnated disk method, Trichosporon sp.; type: cell-based; details: Trichosporon sp.; disk method
Method: as §7, §8, §9, §10

Saccharomyces cerevisiae [9] = test: MIC by impregnated disk method, Saccharomyces cerevisiae; type: cell-based
Method: as §7, §8, §11, §12, §13, §14, §15, §2

[10] = cited from earlier work
Trichosporon sp. [11] = test: MIC by broth dilution method, Trichosporon sp.; type: cell-based; details: Trichosporon sp.; broth dilution method
Source text: as §1, §2, §3, §4, §5, §6

Candida albicans [12] = test: MIC by impregnated disk method, Candida albicans; type: cell-based
Method: as §7, §8, §11, §12, §13, §14, §15, §2

C. parapsilosis [13] = test: MIC by broth dilution method, Candida parapsilosis; type: cell-based
Source text: as §1, §2, §3, §4, §5, §6

C. parapsilosis [14] = test: MIC by impregnated disk method, Candida parapsilosis; type: cell-based
Method: as §7, §8, §11, §12, §13, §14, §15, §2

Cryptococcus neoformans [15] = test: MIC by broth dilution method, Cryptococcus neoformans; type: cell-based
Source text: as §1, §2, §3, §4, §5, §6

Candida albicans [16] = test: MIC by broth dilution method, Candida albicans; type: cell-based
Source text: as §1, §2, §3, §4, §5, §6

Torulopsis glabrata [17] = test: MIC by broth dilution method, Torulopsis glabrata; type: cell-based; details: Torulopsis glabrata; broth dilution method
Source text: as §1, §2, §3, §4, §5, §6

Candida albicans [18] = test: Susceptibility to combination of antifungal agents on disks (Example 2); type: cell-based; details: Candida albicans isolate; in combination with amphotericin B
Source text: (§16) The method of the present invention also may be used to test combinations of antifungal agents. In this method, more than one antifungal agent of known concentration is impregnated in each test disk.
(§17) Each disk is impregnated with a particular known concentration of at least one particular antifungal agent, except for the control disks. When the susceptibility of a fungus to combinations of antifungal agents is being tested, more than one antifungal agent is impregnated in each test disk.
(§18) The susceptibility of two other isolates to combinations of antifungal agents were tested by combining more than one antifungal agent on each test disk. A series of test disks were prepared containing various combinations of antifungal agents in various concentrations and were used in the method of the present invention. The results of this procedure are summarized in the following specific, non-limiting examples:
This is a significant reduction in amphotericin B.

Candida tropicalis = test: Susceptibility to combination of antifungal agents on disks (Example 3); type: cell-based; details: in combination with amphotericin B 0.05 μg/ml
Source text: as §16, §17, §18
An isolate of Candida tropicalis was initially tested for amphotericin B susceptibility of 0.5 μg/ml. When a combination of amphotericin B and tetracycline were combined on the disks used in the testing procedure according to the present invention, effective inhibition of the isolate occurred using 0.05 μg/ml of amphotericin B and 0.2 μg/ml of tetracycline.

[19] = Cryptococcus neoformans isolate 1
[20] = Saccharomyces cerevisiae isolate 1

## C[C@@H]1[C@H](O)[C@@H](C)/C=C/C=C/CC/C=C/C=C/C=C/C=C/C(O[C@H]2O[C@H](C)[C@@H](O)[C@H](N)[C@@H]2O)CC2O[C@](O)(CC(O)C(O)CCC(O)CC(O)CC(O)CC(=O)O[C@H]1C)CC(O)C2C(=O)O (stereo partly drawn) [Nystatin, nystatin]
C. tropicalis [1]
  Minimum Inhibitory Concentration, Broth: 6.00 µg/mL
Torulopsis glabrata [2]
  Minimum Inhibitory Concentration, Disk: 3.00 µg/mL
Cryptococcus neoformans [3]; C. neoformans isolate 2
  Minimum Inhibitory Concentration, Disk: 3.00 µg/mL
Cryptococcus neoformans [3]; [19]
  Minimum Inhibitory Concentration, Disk: 2.00 µg/mL
C. tropicalis [4]
  Minimum Inhibitory Concentration, Disk: 5.50 µg/mL
Geotrichum candidum [5]
  Minimum Inhibitory Concentration, Broth: 4.50 µg/mL
Geotrichum candidum [6]
  Minimum Inhibitory Concentration, Disk: 5.00 µg/mL
Saccharomyces cerevisiae [7]; S. cerevisiae isolate 2
  Minimum Inhibitory Concentration, Broth: 2.00 µg/mL
Saccharomyces cerevisiae [7]; [20]
  Minimum Inhibitory Concentration, Broth: 2.50 µg/mL
Trichosporon sp. [8]
  Minimum Inhibitory Concentration, Disk: 3.50 µg/mL
Saccharomyces cerevisiae [9]; S. cerevisiae isolate 2
  Minimum Inhibitory Concentration, Disk: 1.00 µg/mL
Saccharomyces cerevisiae [9]; [20]
  Minimum Inhibitory Concentration, Disk: 2.00 µg/mL
[10]; in the presence of acid
  stability in acid: unstable in the presence of acid
[10]; upon incubation
  thermal stability: subject to thermal destruction upon incubation
[10]; water
  solubility in water: insoluble in water
Trichosporon sp. [11]
  Minimum Inhibitory Concentration, Broth: 3.00 µg/mL
Candida albicans [12]; isolate 1
  Minimum Inhibitory Concentration, Disk: 1.50 µg/mL
Candida albicans [12]; isolate 2
  Minimum Inhibitory Concentration, Disk: 4.50 µg/mL
Candida albicans [12]; isolate 3
  Minimum Inhibitory Concentration, Disk: 1.50 µg/mL
Candida albicans [12]; isolate 4
  Minimum Inhibitory Concentration, Disk: 3.50 µg/mL
Candida albicans [12]; isolate 5
  Minimum Inhibitory Concentration, Disk: 4.00 µg/mL
Candida albicans [12]; isolate 6
  Minimum Inhibitory Concentration, Disk: 6.50 µg/mL
Candida albicans [12]; isolate 7
  Minimum Inhibitory Concentration, Disk: 0.30 µg/mL
C. parapsilosis [13]; C. parapsilosis isolate 1
  Minimum Inhibitory Concentration, Broth: 4.50 µg/mL
C. parapsilosis [13]; C. parapsilosis isolate 2
  Minimum Inhibitory Concentration, Broth: 5.00 µg/mL
C. parapsilosis [14]; C. parapsilosis isolate 1
  Minimum Inhibitory Concentration, Disk: 3.50 µg/mL
C. parapsilosis [14]; C. parapsilosis isolate 2
  Minimum Inhibitory Concentration, Disk: 4.50 µg/mL
Cryptococcus neoformans [15]; C. neoformans isolate 2
  Minimum Inhibitory Concentration, Broth: 3.00 µg/mL
Cryptococcus neoformans [15]; [19]
  Minimum Inhibitory Concentration, Broth: 2.50 µg/mL
Candida albicans [16]; isolate 1
  Minimum Inhibitory Concentration, Broth: 1.50 µg/mL
Candida albicans [16]; isolate 2
  Minimum Inhibitory Concentration, Broth: 5.00 µg/mL
Candida albicans [16]; isolate 3
  Minimum Inhibitory Concentration, Broth: 1.50 µg/mL
Candida albicans [16]; isolate 4
  Minimum Inhibitory Concentration, Broth: 3.50 µg/mL
Candida albicans [16]; isolate 5
  Minimum Inhibitory Concentration, Broth: 4.00 µg/mL
Candida albicans [16]; isolate 6
  Minimum Inhibitory Concentration, Broth: 6.00 µg/mL
Candida albicans [16]; isolate 7
  Minimum Inhibitory Concentration, Broth: 0.20 µg/mL
Torulopsis glabrata [17]
  Minimum Inhibitory Concentration, Broth: 4.50 µg/mL

## CN(C)C1C(=O)C(C(N)=O)=C(O)C2(O)C(=O)C3=C(O)c4c(O)cccc4C(C)(O)C3CC12 (stereo not drawn) [tetracycline]
Candida albicans [18]
  tetracycline susceptibility: 0.1 µg/mL
Candida tropicalis
  effective inhibition of the isolate, concentration of tetracycline: 0.2 µg/mL
